Results from ChEMBL document CHEMBL5584264 (Bioorg Med Chem Lett, 2024).
≈ marks a conversion by molar mass, not a printed value.

Assays:
[1] = system: RAW264.7; experiment: Antiinflammatory activity against LPS-induced mouse RAW264.7 cells assessed as reduction in TNF-alpha level at 10 uM preincubated with compound for 1 hr followed by LPS-induction and measured after 24 hrs by ELISA analysis relative to control; assay type: functional; parameters: scale not given: the % may be the effect or the level left; details: time 25 hrs
[2] = system: RAW264.7; experiment: Antiinflammatory activity against LPS-induced mouse RAW264.7 cells assessed as reduction in TNF-alpha level at 1 uM preincubated with compound for 1 hr followed by LPS-induction and measured after 24 hrs by ELISA analysis relative to control; assay type: functional; parameters: scale not given: the % may be the effect or the level left; details: time 25 hrs
[3] = system: RAW264.7; experiment: Antiinflammatory activity against LPS-induced mouse RAW264.7 cells assessed as cell viability at 10 uM by celltiter-blue cell viability assay; assay type: functional; details: read-out: Activity
[4] = system: RAW264.7; experiment: Antiinflammatory activity against LPS-induced mouse RAW264.7 cells assessed as reduction in nitrite level at 10 uM preincubated with compound for 1 hr followed by LPS-induction and measured after 24 hrs by Fluorometric Assay relative to control; assay type: functional; parameters: scale not given: the % may be the effect or the level left; details: time 25 hrs
[5] = target: Protein cereblon/DNA damage-binding protein 1 (Homo sapiens) (UniProt Q96SW2+Q16531); experiment: Displacement of Cy5-tagged thalidomide-like probe from human CRBN/DDB1 complex by fluorescence polarization based CRBN binding assay; assay type: protein assay
[6] = system: RAW264.7; experiment: Antiinflammatory activity against LPS-induced mouse RAW264.7 cells assessed as cell viability at 1 uM by celltiter-blue cell viability assay; assay type: functional; details: read-out: Activity
[7] = system: RAW264.7; experiment: Antiinflammatory activity against LPS-induced mouse RAW264.7 cells assessed as cell viability at 30 uM by celltiter-blue cell viability assay; assay type: functional; details: read-out: Activity
[8] = system: RAW264.7; experiment: Antiinflammatory activity against LPS-induced mouse RAW264.7 cells assessed as reduction in nitrite level at 1 uM preincubated with compound for 1 hr followed by LPS-induction and measured after 24 hrs by Fluorometric Assay relative to control; assay type: functional; parameters: scale not given: the % may be the effect or the level left; details: time 25 hrs
[9] = system: RAW264.7; experiment: Antiinflammatory activity against LPS-induced mouse RAW264.7 cells assessed as reduction in nitrite level at 30 uM preincubated with compound for 1 hr followed by LPS-induction and measured after 24 hrs by Fluorometric Assay relative to control; assay type: functional; parameters: scale not given: the % may be the effect or the level left; details: time 25 hrs
[10] = system: RAW264.7; experiment: Antiinflammatory activity against LPS-induced mouse RAW264.7 cells assessed as reduction in TNF-alpha level at 30 uM preincubated with compound for 1 hr followed by LPS-induction and measured after 24 hrs by ELISA analysis relative to control; assay type: functional; parameters: scale not given: the % may be the effect or the level left; details: time 25 hrs
[11] = system: RAW264.7; experiment: Antiinflammatory activity against LPS-induced mouse RAW264.7 cells assessed as reduction in IL-6 level at 1 uM preincubated with compound for 1 hr followed by LPS-induction and measured after 24 hrs by ELISA analysis relative to control; assay type: functional; parameters: scale not given: the % may be the effect or the level left; details: time 25 hrs
[12] = system: RAW264.7; experiment: Antiinflammatory activity against LPS-induced mouse RAW264.7 cells assessed as reduction in IL-6 level at 10 uM preincubated with compound for 1 hr followed by LPS-induction and measured after 24 hrs by ELISA analysis relative to control; assay type: functional; parameters: scale not given: the % may be the effect or the level left; details: time 25 hrs
[13] = system: RAW264.7; experiment: Antiinflammatory activity against LPS-induced mouse RAW264.7 cells assessed as reduction in IL-6 level at 30 uM preincubated with compound for 1 hr followed by LPS-induction and measured after 24 hrs by ELISA analysis relative to control; assay type: functional; parameters: scale not given: the % may be the effect or the level left; details: time 25 hrs
[14] = system: RAW264.7; experiment: Antiinflammatory activity against LPS-induced mouse RAW264.7 cells assessed as reduction in nitrite level preincubated with compound for 1 hr followed by LPS-induction and measured after 24 hrs by Fluorometric Assay; assay type: functional, cell-based; details: dose 1-30 µM, time 25.0 hrs
[15] = system: RAW264.7; experiment: Antiinflammatory activity against LPS-induced mouse RAW264.7 cells assessed as reduction in IL-6 level preincubated with compound for 1 hr followed by LPS-induction and measured after 24 hrs by ELISA analysis; assay type: functional, cell-based; details: dose 1-30 µM, time 25.0 hrs
[16] = target: Sigma intracellular receptor 2 (Homo sapiens, UniProt Q5BJF2); experiment: Displacement of [3H]DTG from sigma-2 receptor (unknown origin) assessed as inhibition constant
[17] = target: Sigma non-opioid intracellular receptor 1 (Homo sapiens, UniProt Q99720); experiment: Displacement of [3H]DTG from sigma-1 receptor (unknown origin) assessed as inhibition constant
[18] = target: 5-hydroxytryptamine receptor 2A (Homo sapiens, UniProt P28223); experiment: Displacement of [3H]DTG from 5HT2A receptor (unknown origin) assessed as inhibition constant
[19] = target: 5-hydroxytryptamine receptor 2B (Homo sapiens, UniProt P41595); experiment: Displacement of [3H]DTG from 5HT2B receptor (unknown origin) assessed as inhibition constant
[20] = target: Serotonin 3 (5-HT3) receptor; experiment: Displacement of [3H]DTG from 5HT3 receptor (unknown origin) assessed as inhibition constant; assay type: protein-complex assay, Homo sapiens
[21] = Solubility of compound in PBS at pH 7.4 by LC/MS analysis; assay type: physicochemical

Protein cereblon/DNA damage-binding protein 1 (Homo sapiens), sequence (Q16531 2-1140 partner limits assumed): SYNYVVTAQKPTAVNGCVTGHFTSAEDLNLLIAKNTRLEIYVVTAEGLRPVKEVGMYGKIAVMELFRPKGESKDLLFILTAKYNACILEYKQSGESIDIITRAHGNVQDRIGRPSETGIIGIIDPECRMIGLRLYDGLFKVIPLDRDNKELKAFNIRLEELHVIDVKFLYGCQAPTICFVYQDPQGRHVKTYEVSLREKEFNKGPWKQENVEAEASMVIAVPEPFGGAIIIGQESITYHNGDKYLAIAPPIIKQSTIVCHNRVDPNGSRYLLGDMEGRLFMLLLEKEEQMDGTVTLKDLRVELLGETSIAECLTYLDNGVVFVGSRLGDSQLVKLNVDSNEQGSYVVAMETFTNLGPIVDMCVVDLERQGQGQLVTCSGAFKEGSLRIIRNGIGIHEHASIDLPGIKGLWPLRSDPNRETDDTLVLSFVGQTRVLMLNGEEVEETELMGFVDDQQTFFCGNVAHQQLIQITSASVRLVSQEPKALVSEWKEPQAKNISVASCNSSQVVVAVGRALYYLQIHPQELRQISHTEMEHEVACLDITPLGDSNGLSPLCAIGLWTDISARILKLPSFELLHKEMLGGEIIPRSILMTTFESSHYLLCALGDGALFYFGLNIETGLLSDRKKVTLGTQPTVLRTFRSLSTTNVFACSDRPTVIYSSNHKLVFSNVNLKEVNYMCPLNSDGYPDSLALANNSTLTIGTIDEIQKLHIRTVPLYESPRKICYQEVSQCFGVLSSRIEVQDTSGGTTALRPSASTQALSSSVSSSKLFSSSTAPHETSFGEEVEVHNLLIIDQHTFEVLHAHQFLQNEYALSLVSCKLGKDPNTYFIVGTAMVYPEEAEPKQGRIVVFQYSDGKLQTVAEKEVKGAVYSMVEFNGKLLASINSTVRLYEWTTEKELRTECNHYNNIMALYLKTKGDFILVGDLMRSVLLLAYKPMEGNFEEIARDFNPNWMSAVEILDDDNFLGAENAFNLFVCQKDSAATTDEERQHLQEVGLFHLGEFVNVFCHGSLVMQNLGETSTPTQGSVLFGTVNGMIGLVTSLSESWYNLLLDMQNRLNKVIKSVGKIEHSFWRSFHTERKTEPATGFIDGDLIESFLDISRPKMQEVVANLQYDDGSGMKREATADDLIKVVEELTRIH
Protein cereblon/DNA damage-binding protein 1 (Homo sapiens), sequence (Q96SW2 whole entry): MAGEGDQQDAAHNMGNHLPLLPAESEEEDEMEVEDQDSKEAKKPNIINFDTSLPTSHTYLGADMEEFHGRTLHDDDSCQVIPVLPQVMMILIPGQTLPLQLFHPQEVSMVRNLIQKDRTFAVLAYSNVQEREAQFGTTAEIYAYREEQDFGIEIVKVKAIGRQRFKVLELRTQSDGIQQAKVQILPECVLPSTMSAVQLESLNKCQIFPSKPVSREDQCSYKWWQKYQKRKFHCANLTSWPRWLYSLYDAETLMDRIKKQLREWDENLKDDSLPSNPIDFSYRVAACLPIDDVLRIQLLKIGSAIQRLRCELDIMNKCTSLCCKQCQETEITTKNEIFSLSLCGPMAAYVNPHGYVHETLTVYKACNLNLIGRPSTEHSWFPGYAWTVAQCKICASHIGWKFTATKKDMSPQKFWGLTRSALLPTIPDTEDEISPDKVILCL
Sigma intracellular receptor 2, sequence (Q5BJF2 whole entry): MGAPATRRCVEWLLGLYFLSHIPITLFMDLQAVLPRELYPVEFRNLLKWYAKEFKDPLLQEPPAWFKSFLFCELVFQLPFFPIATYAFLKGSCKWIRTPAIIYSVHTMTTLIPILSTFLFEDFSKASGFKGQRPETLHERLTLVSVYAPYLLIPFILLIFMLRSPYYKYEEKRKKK
5-hydroxytryptamine receptor 2A, sequence (P28223 whole entry): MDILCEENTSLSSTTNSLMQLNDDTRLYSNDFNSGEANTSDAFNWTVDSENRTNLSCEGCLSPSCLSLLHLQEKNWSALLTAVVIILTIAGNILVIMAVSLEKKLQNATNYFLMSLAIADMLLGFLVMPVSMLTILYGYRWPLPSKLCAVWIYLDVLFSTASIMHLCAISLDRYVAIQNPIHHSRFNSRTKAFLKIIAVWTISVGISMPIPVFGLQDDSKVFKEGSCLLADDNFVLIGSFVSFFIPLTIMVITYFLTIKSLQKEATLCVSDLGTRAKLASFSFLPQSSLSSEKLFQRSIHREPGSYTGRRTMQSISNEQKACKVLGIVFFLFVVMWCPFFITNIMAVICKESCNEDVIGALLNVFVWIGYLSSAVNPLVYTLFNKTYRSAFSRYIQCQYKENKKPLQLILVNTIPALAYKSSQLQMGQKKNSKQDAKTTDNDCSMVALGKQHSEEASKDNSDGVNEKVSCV
5-hydroxytryptamine receptor 2B, sequence (P41595 whole entry): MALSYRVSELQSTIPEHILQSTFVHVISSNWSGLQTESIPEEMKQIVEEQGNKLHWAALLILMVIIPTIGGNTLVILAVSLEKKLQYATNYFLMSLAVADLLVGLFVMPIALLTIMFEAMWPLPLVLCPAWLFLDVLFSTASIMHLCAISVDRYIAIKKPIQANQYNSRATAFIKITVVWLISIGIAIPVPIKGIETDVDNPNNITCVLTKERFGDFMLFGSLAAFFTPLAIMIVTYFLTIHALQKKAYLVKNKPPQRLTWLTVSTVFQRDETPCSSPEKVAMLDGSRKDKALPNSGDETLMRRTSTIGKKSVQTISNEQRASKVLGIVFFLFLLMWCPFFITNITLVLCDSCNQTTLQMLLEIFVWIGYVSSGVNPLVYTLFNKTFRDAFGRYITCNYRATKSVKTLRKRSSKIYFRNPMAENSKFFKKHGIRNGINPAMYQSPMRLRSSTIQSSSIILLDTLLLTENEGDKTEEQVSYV
Sigma non-opioid intracellular receptor 1, sequence (Q99720 whole entry): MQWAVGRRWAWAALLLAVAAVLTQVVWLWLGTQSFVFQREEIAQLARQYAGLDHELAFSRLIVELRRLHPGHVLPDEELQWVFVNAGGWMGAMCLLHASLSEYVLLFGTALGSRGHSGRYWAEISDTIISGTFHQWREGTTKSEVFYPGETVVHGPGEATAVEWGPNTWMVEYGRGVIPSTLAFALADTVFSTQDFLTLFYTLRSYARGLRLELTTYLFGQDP

With `CN1CCCC(N2C(=O)c3cccc(N)c3C2=O)C1` (racemic) the Activity [1] was 116%, the Activity [2] was 111% and the viability at 10 µM [3] was 95%. The Activity [4] was 105% and the Activity [5] was “Dose-Dependent Effect”.

`Nc1cccc2c1C(=O)N(C1CCCN(C(=O)C(F)(F)F)C1)C2=O` (stereo not given) showed a viability at 1 µM [6] of 103%, a viability at 10 µM [3] of 103% and a viability at 30 µM [7] of 99%. The Activity [8] was 92%, the Activity [4] was 90% and the Activity [9] was 100%. For the same compound, the Activity [10] was 94%.

Compound `Nc1cccc2c1C(=O)N([C@@H]1CCCNC1)C2=O` has an Activity [1] of 95%, a viability at 1 µM [6] of 100% and a viability at 10 µM [3] of 103%. The viability at 30 µM [7] was 114%, the Activity [4] was 87% and the Activity [9] was 68%. The Activity [10] was 91%, the Activity [11] was 108% and the Activity [12] was 72%. For the same compound, the Activity [13] was 60%, the Activity [14] was “Dose-Dependent Effect” and the Activity [15] was “Dose-Dependent Effect”.

With `CC(=O)N1CCCC(N2C(=O)c3cccc(N)c3C2=O)C1` (stereo not given) the Activity [1] was 86%, the Activity [2] was 95% and the viability at 1 µM [6] was 102%. The viability at 10 µM [3] was 103%, the viability at 30 µM [7] was 101% and the Activity [8] was 95%. The Activity [4] was 88%, the Activity [9] was 81% and the Activity [10] was 86%. The Activity [11] was 111%, the Activity [12] was 106% and the Activity [13] was 89%. The Activity [14] was “Dose-Dependent Effect”, the Ki [16] was 5.2 µM and the Ki [17] was 2.4 µM. The Ki [18] was 5.2 µM and the Activity [5] was “Dose-Dependent Effect”.

With `CS(=O)(=O)N1CCCC(N2C(=O)c3cccc(N)c3C2=O)C1` (stereo not given) the Activity [1] was 99%, the Activity [2] was 98% and the viability at 1 µM [6] was 103%. The viability at 10 µM [3] was 103%, the viability at 30 µM [7] was 103% and the Activity [8] was 92%. For the same compound, the Activity [4] was 103%, the Activity [9] was 95% and the Activity [10] was 96%. For the same compound, the Activity [11] was 111%, the Activity [12] was 112% and the Activity [13] was 116%. The Ki [19] was over 10 µM, the Ki [20] was over 10 µM and the Ki [18] was over 10 µM. For the same compound, the Activity [5] was “Dose-Dependent Effect”.

`Nc1cccc2c1C(=O)N(C1CCCN(C(=O)C3CC3)C1)C2=O` (stereo not given) gave an Activity [1] of 100%, a viability at 1 µM [6] of 99% and a viability at 10 µM [3] of 102%. The viability at 30 µM [7] was 109%, the Activity [4] was 94% and the Activity [9] was 89%. For the same compound, the Activity [10] was 100%.

With `Nc1cccc2c1C(=O)N(C1CCCNC1)C2=O` (racemic) the viability at 1 µM [6] was 100%, the viability at 10 µM [3] was 99% and the viability at 30 µM [7] was 105%. It also gave an Activity [8] of 97%, an Activity [4] of 91% and an Activity [9] of 83%. It also gave an Activity [10] of 104%, an Activity [11] of 83% and an Activity [12] of 88%. The Activity [13] was 82%, the Activity [14] was “Dose-Dependent Effect” and the Ki [16] was 2.2 µM. For the same compound, the Ki [19] was 0.561 µM and the Activity [5] was “Dose-Dependent Effect”.

For `CC(C)N1CCC[C@@H](N2C(=O)c3cccc(N)c3C2=O)C1`, the Activity [1] was 110%, the Activity [2] was 106% and the viability at 1 µM [6] was 96%. For the same compound, the viability at 10 µM [3] was 99%, the viability at 30 µM [7] was 90% and the Activity [8] was 126%. For the same compound, the Activity [4] was 99%, the Activity [9] was 153% and the Activity [10] was 114%.

`CN1CCC[C@@H](N2C(=O)c3cccc(N)c3C2=O)C1` showed an Activity [1] of 100%, an Activity [2] of 108% and a viability at 1 µM [6] of 100%. It also gave a viability at 10 µM [3] of 100%, an Activity [4] of 101% and an Activity [9] of 95%.

With `Nc1cccc2c1C(=O)N([C@H]1CCCNC1)C2=O` the Activity [1] was 94%, the viability at 1 µM [6] was 104% and the viability at 10 µM [3] was 102%. It also gave a viability at 30 µM [7] of 103%, an Activity [8] of 110% and an Activity [9] of 83%. For the same compound, the Activity [10] was 94%, the Activity [12] was 102% and the Activity [13] was 94%. For the same compound, the Activity [14] was “Dose-Dependent Effect” and the Activity [15] was “Dose-Dependent Effect”.

Compound `CCN1CCC[C@@H](N2C(=O)c3cccc(N)c3C2=O)C1` has an Activity [1] of 97%, an Activity [2] of 92% and a viability at 1 µM [6] of 106%. For the same compound, the viability at 10 µM [3] was 104%, the viability at 30 µM [7] was 102% and the Activity [8] was 93%. It also gave an Activity [4] of 93%, an Activity [9] of 80% and an Activity [10] of 96%. For the same compound, the Activity [14] was “Dose-Dependent Effect”.

For `Nc1cccc2c1C(=O)N(C1CCC(=O)NC1=O)C2=O` (stereo not given) [POMALIDOMIDE], the solubility [21] was 85 µM (≈ 23.2 µg/mL).

`CCN1CCCC(N2C(=O)c3cccc(N)c3C2=O)C1` (racemic) showed an Activity [1] of 112%, an Activity [2] of 115% and a viability at 1 µM [6] of 101%. It also gave a viability at 10 µM [3] of 99%, a viability at 30 µM [7] of 97% and an Activity [8] of 101%. It also gave an Activity [4] of 101%, an Activity [9] of 90% and an Activity [10] of 102%.

`CN1CCC[C@H](N2C(=O)c3cccc(N)c3C2=O)C1` gave a viability at 1 µM [6] of 110%, a viability at 10 µM [3] of 111% and an Activity [10] of 106%. For the same compound, the Activity [14] was “Dose-Dependent Effect”.

With `CC(C)N1CCC[C@H](N2C(=O)c3cccc(N)c3C2=O)C1` the Activity [1] was 115%, the Activity [2] was 107% and the viability at 1 µM [6] was 100%. For the same compound, the viability at 10 µM [3] was 100%, the viability at 30 µM [7] was 102% and the Activity [8] was 112%. It also gave an Activity [4] of 100%, an Activity [9] of 108% and an Activity [10] of 115%.

Compound `CCN1CCC[C@H](N2C(=O)c3cccc(N)c3C2=O)C1` has an Activity [1] of 111%, an Activity [2] of 114% and a viability at 1 µM [6] of 100%. For the same compound, the viability at 10 µM [3] was 96%, the viability at 30 µM [7] was 94% and the Activity [8] was 115%. The Activity [4] was 120%, the Activity [9] was 114% and the Activity [10] was 109%.

With `CC(C)N1CCCC(N2C(=O)c3cccc(N)c3C2=O)C1` (racemic) the Activity [1] was 109%, the Activity [2] was 100% and the viability at 1 µM [6] was 105%. It also gave a viability at 10 µM [3] of 100%, a viability at 30 µM [7] of 95% and an Activity [8] of 109%. It also gave an Activity [4] of 100%, an Activity [9] of 123% and an Activity [10] of 103%.
